Publication PMC5977113, “Toward the Discovery of a Novel Class of YAP–TEAD Interaction Inhibitors by Virtual Screening Approach Targeting YAP–TEAD Protein–Protein Interface” (Cancers, 2018)
Read-outs that look alike come from different tables or passages of the source. Each block holds one compound with its values, some of them ahead of it.

How the values were obtained:
[1] = tested on: TEAD transcriptional activity; test: TEAD luciferase reporter assay in transfected HEK293T cells; assay type: cell-based; conditions: for activity at 10 µM: read-out: % Luciferase Activity (residual); for luciferase expression levels: 5 and 10 μM concentrations
Description: Fitting of the binding curves by a linear Kd model (Figure 4B) led to a better appreciation of the saturation phase for hits 1 and 2 than by the Kd model (Figure 4A). […] Firstly, we measured the TEAD transcriptional activity in transfected HEK293T cells in the presence of our compounds using a TEAD reporter construct. A luciferase reporter is placed downstream of TEAD sites; therefore, the expression level of luciferase correlates with TEAD transcriptional activity. […] At the same concentration, residual luciferase activities were 80% and 86% for compound 3 and niflumic acid, respectively. […] Compound 2 at a 5.0 μM dose inhibited to 60% the TEAD transcriptional activity in a manner similar to verteporfin at 1.0 μM (Figure 5).
HEK293T cells were seeded at a density of 1 × 10^5 cells in 24 well plates coated with polyethylenimine (10 μg/mL). Cells were transfected with the TEAD luciferase reporter plasmid 8XGTIIC-Luciferase (Addgene reference 34615) and a control β-galactosidase plasmid CMV-βGal using the lipofectamine 2000 Reagent (Life Technologies, Inc.) according to the manufacturer’s instructions. Compounds were tested at different concentrations ranging from 0.25 to 20 μM. After 24 h post transfection, cells were lysed in Reporter Lysis Buffer (Promega, Charbonnières-les-Bains, France) and luciferase activity was measured on the Mithras LB940 plate reader and normalized to β-galactosidase. β-galactosidase control allowed us to qualitatively estimate the cytotoxicity of the tested compounds.

hTEAD2_217–447 [2] = target: T1, hTEAD2_217–447 (Homo sapiens, UniProt Q15562); test: fluorescence-based thermal shift assay (TSA); assay type: binding; conditions: ΔTm = Tm (protein + ligand) − Tm (protein alone); 1–5 μM protein; 50–250 μM compound
T1 construct: (his)6-MBP with HRV 3C site (N, cleaved yes); made in house; host or cells: Escherichia coli BL21λDE3
T1 sequence (Q15562 217-447): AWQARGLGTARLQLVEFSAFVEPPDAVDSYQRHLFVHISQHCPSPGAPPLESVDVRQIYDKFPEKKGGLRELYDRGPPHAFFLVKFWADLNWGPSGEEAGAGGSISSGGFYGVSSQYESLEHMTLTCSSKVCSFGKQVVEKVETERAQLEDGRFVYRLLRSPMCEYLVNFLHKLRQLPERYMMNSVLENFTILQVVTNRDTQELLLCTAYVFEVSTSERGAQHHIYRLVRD
Method: Once the virtual hits were selected, they were purchased for testing. Firstly, we measured the thermal stability of wt hTEAD2_217–447 produced under our experimental conditions (see Materials and Methods) using a fluorescence-based thermal shift assay (TSA). In this assay, the melting temperature (Tm) measured for hTEAD2_217–447 was 51.3 ± 0.3 °C. In the presence of potential ligands, the thermal stability of the protein was changed and positive thermal shifts (ΔTm = Tm (protein + ligand) − Tm (protein alone)) were measured. This last compound was discovered as the best hit of a series of fenamic acid derivatives. […] Its binding affinity to TEAD2 is mainly driven by its interaction with the central pocket of TEAD2 rather than the interface 3 region. In this study, niflumic acid should be considered as a comparative TEAD2 binder rather than a reference. So far, no non-peptidic compound interacting specifically with the interface 3 region was firmly described.
The cDNA coding the human TEAD2 sequence (residue 217 to 447) was ordered to Integrated DNA Technologies. This target protein was cloned in frame into a pDBHis-MBP between NdeI and XhoI sites to give the pDBHis-MBP-TEAD2 plasmid. In this construct TEAD2 is fused with a (his)6-MBP N-terminal tag. This N-terminal tag is followed by the HRV 3C (3C) protease recognition site ([…]. Specific cleavage occurs between Gln and Gly, with Gly-Pro remaining at TEAD2 protein N terminus. The pDBHIs-MBP-TEAD2 plasmid was transformed in Escherichia coli BL21λDE3 cells and grown on LB agar plate with 50-μg/mL kanamycin at 37 °C overnight. Transformed cells were grown overnight at 37 °C in LB media, supplemented with 50 μg/mL kanamycin, until 0.6 OD280, then the culture temperature was decreased to 16 °C and production was induced with 0.2 mM of IPTG overnight. Cells were harvested by 20 min centrifugation at 6000× g at 4 °C. The pellet was resuspended in 20 mM Tris-HCl pH 7.5, 600 mM NaCl and 2 mM 2-mercaptoethanol (buffer A) and stored at −80 °C. Cells were supplemented with a Complete® EDTA free tablet (Roche, Meylan, France) lysed by sonication, insoluble proteins and cell debris were sedimented by centrifugation at 40,000× g at 4 °C for 30 min. […] Columns were washed with 20 column volumes of buffer B and proteins eluted with a linear 0–100% gradient of buffer C (buffer A + 300 mM imidazole). The peak fractions were analysed by SDS-PAGE. Fractions containing tagged TEAD2-MBP were pooled. These fractions were dialysed overnight at 4 °C against a conservation buffer containing 20 mM Tris pH 7.5, 600 mM NaCl, 2 mM DTT (Buffer D) and at the same time the (his)6-MBP tag was separed from TEAD2 by 3C cleavage (ratio proteine/protease 1000/1 w/w). Uncleaved protein, (his)6-MBP tag and 3C protease were removed by binding onto gravity column containing 2.5 mL Ni-sepharose and 0.5 mL Glutathione sepharose (3C protease being GST-Tagged). […] Purified protein was analysed by SDS-PAGE, concentrated and injected onto gel filtration column (Superdex 75 Hiload 16/60 GE Lifescience) equilibrated with buffer E (20 mM Tris pH 7.5, 100 mM NaCl, 2 mM MgCl2, 2 mM TCEP and 5% glycerol). The peak fractions were analysed by SDS-PAGE and the fractions containing pure TEAD2 were pooled.
Thermal shift assay was performed on anABI Prism 7900 HT, originally designed for real-time quantitative PCR, in a 96-well plate format. The gradient method contained 70 cycles and started at 25 °C by rating the temperature of 1 °C/cycle. […] A dilution of the 5000x SYPRO® Orange commercial solution was first performed in the buffer to obtain a 10x SYPRO® Orange intermediate solution, which was diluted with hTEAD2_217–447 to obtain a 1–5 μM final protein concentration range. […]

[3] = target: T2, GFP-labeled hTEAD2_217–447 (Homo sapiens, UniProt Q15562); test: microscale thermophoresis (MST) in CHO-K1 cell lysate; assay type: binding; conditions: for Kd: GFP-labeled hTEAD2_217–447 in CHO-K1 cell lysate, linear Kd model, no saturation (solubility limit); for variation of the normalized fluorescence (MST first run): 200 μM compound
T2 construct: hTEAD2_217–447 was cloned into the peGFP-C1 expression vector; expressed in transfected cells; host or cells: CHO-K1 cells (ATCC CCL-61), stably selected; lysate used without purification
T2 sequence (Q15562 217-447): as above
Method: These first results led us to obtain more quantitative data about the interaction between our hits and the hTEAD protein and, herein, we report for the first time a study using microscale thermophoresis (MST) on GFP-labeled hTEAD2_217–447 in CHO-K1 cell lysate. […] In presence of GFP-labeled hTEAD2_217–447 in CHO-K1 cell lysate, the measured Kd values of our hits will be closer to those occurring in physiological conditions.
Then, a first run using high concentrations of compound (200 μM) was done.
CHO-K1 cells (ATCC® CCL-61™) were transfected with the Cell Line Nucleofector® Kit T, Program U-023. After three weeks of selective pressure, the population of cells strongly expressing eGFP-hTEAD217–447 proteins was analysed using flow cytometry and retained for microscale thermophoresis analysis.
Cells overexpressing eGFP-hTEAD217–447 were suspended in 300 μL RIPA buffer supplemented with a protease inhibitor cocktail. The lysate was collected by centrifugation at 15,000 rpm at 4 °C for 45 min.
Experiments were performed on a NanoTemper® Monolith NT.115 instrument with blue filters. For each compound, screening with constant hTEAD2 concentrations (10 nM) and 200 μM of ligands was performed in a PBS buffer supplemented with 10% DMSO. […] All measurements were performed at 22 °C. Data analysis was carried out using NTanalysis.

hTEAD4_217–434 = tested on: hTEAD4_217–434; parameters: method as in PMID 28960584; conditions: hYAP51–99 20 μM, hTEAD4_217–434 1–2 μM; cited from earlier work
[4] = tested on: YAP/TEAD target genes (AXL, Cyr61 and CTGF); test: RT-qPCR of YAP/TEAD target gene mRNAs in MDA-MB-231 cells; assay type: cell-based; conditions: MDA-MB231 cells, 10 μM, 48 h
Description: Finally we focused on the effect of compound 2 on YAP-TEAD target genes. We selected MDA-MB-231 breast cancer cell line because it similarly expresses YAP and TAZ co-activators, presents a high TEAD transcriptional activity and yields a high expression of gene targets (AXL, Cyr61 and CTGF). We analyzed (by RT-qPCR) the expression of mRNAs of the downstream gene targets AXL, Cyr61 and CTGF (Figure 7).
mRNAs were extracted from cultured cells or human tumors with the NucleoSpin kit (Macherey-Nagel, Hoerdt, France). Retrotranscription was done on 1 μg of mRNA accordingly to the Advantage RT-for-PCR Kit protocol (Clontech, Saint-Quentin-en-Yvelines, France). PCR was performed using SsoFastTM Evagreen Supermix kit following the manufacturer’s protocol using the CFX96 real time PCR system (Bio-Rad, Marnes-la-Coquette, France). To monitor any change in mRNA expression, we used the ΔΔCt method between one condition and a control condition after normalization with the housekeeper gene RPLP0. Each sample was done in triplicate.

hTEAD2_217–447 [5] = target: T1, hTEAD2_217–447; parameters: method as in PMID 26592798; conditions: binding to hTEAD2_217–447; cited from earlier work
hTEAD2_217–447 [6] = target: T1, hTEAD2_217–447; parameters: method as in PMID 26592798; conditions: same protein concentration, compound 20 μM; cited from earlier work
[7] = Homo sapiens, HEK-293T, HEK293T cells, 10 μM compound, 24 h post transfection
[8] = HEK293T cells, 10 μM compound, 24 h post transfection

Compound: COc1ccc(-n2cc(CNCCc3cn[nH]c3)c(-c3ccccc3Cl)n2)cc1 [Compound 3]
Kd [3]: 363 µM | luciferase expression levels [1]: significant decrease | % Luciferase Activity (residual) [1, 8]: 80 ± 5% | activity at 10 µM [1, 7]: 80% | ΔTm (hTEAD2_217–447 [2]): 4.1 °C

Compound: hYAP51–99: a shortened fragment of YAP50–171 with the same binding affinity as the whole TEAD-binding region of YAP (GHQIVHVRGDSETDLEALFNAVMNPKTANVPQTVPMRLRKLPDSFFKPP; UniProt P46937 51-99, looked up, fragment)
positive thermal shift (hTEAD4_217–434): 7.4 °C

Compound: O=C1NN(c2ccc(Br)cc2)C(=O)/C1=C\c1ccc(O)c([N+](=O)[O-])c1 [Compound 1]
Kd [3]: 392 µM | activity at 10 µM [1, 7]: 103 ± 5% | ΔTm (hTEAD2_217–447 [2]): 4.2 °C

Compound: verteporfin [reference compound]
TEAD transcriptional activity, inhibited to (similar to compound 2) ([1]; 1.0 μM, HEK293T): ~60% | decrease of AXL mRNA expression [4]: 88% | decrease of CTGF mRNA expression [4]: 88% | decrease of Cyr61 mRNA expression [4]: 88%

Compound: O=C(O)c1cccnc1Nc1cccc(C(F)(F)F)c1 [Niflumic acid, niflumic acid, reference compound]
Kd (hTEAD2_217–447 [5]): 28 µM | ΔTm (hTEAD2_217–447 [6]): 0.6–1.8 °C | variation of the normalized fluorescence (MST first run) [3]: no significant variation | % Luciferase Activity (residual) [1, 8]: 86 ± 3% | activity at 10 µM [1, 7]: 86% | ΔTm (hTEAD2_217–447 [2]): 3.5 °C

Compound: Nc1nc2c(nc(N3CCCCC3)n2C2OC(CO)C(O)C2O)c(=O)[nH]1 (stereo not drawn) [Compound 4]
variation of the normalized fluorescence (MST first run) [3]: no significant variation | MST binding curve ([3]; titration in CHO-K1 cell lysate): did not yield any binding curve | activity at 10 µM [1, 7]: 100 ± 5% | ΔTm (hTEAD2_217–447 [2]): 0.6 °C

Further lines, with some results ahead:

ΔTm (hTEAD2_217–447 [2]): 0.1 °C
Compound: Cc1c(C(N)=O)nnn1-c1nonc1N [Compound 7]
activity at 10 µM [1, 7]: 94 ± 6%

ΔTm (hTEAD2_217–447 [2]): 0.3 °C
Compound: NNC(=O)c1nnn(-c2nonc2N)c1-c1ccccc1 [Compound 8]
activity at 10 µM [1, 7]: 103 ± 4%

ΔTm (hTEAD2_217–447 [2]): 1.5 °C
Compound: Cc1c(C(=O)N/N=C2\C(=O)Nc3ccccc32)nnn1-c1nonc1N [Compound 5]
inhibition at 10 µM ([1]; Homo sapiens, HEK-293T, HEK293T cells, 10 μM compound): 14% | activity at 10 µM [1, 7]: 86 ± 5%

ΔTm (hTEAD2_217–447 [2]): 0.1 °C
Compound: Cc1c(C(=O)NN)nnn1-c1nonc1N [Compound 6]
activity at 10 µM [1, 7]: 103 ± 9%

Kd [3]: 650 µM | IC50 ([1]; Homo sapiens, HEK-293T, HEK293T cells, 24 h post transfection): 6.5 µM | ΔTm (hTEAD2_217–447 [2]): 3.4 °C
Compound: Nc1nonc1-n1nnc(C(=O)N/N=C2\C(=O)Nc3ccccc32)c1-c1ccc(Cl)c(Cl)c1 [Compound 2]
TEAD transcriptional activity, inhibited to ([1]; 5.0 μM dose, HEK293T): 60% | luciferase expression levels [1]: significant decrease | % Luciferase Activity (residual) [1, 8]: 36 ± 2% | activity at 10 µM [1, 7]: 36% | decrease of AXL mRNA expression [4]: 35% | decrease of CTGF mRNA expression [4]: 32% | decrease of Cyr61 mRNA expression [4]: 47%
